Measurements as given in patent publication US20190030053A1, “COMPOSITION FOR INCREASING EXPRESSION OF PGC-1alpha” (BENEBIOSIS CO., LTD., priority 2016, published 2019).

How the values were obtained:
[1] = test system: Huntington's disease model mice (R6/2); assay: Rotarod travel test in Huntington's disease models; assay type: in vivo, mouse; conditions: R6/2 mice, oral 0.1 mg/kg/day
From the text: In order to investigate the changes in gene expression and cognitive ability by the treatment with SL (3′-SL & 6′-SL) compositions in Huntington's brain disease model, 4-week-old mice were purchased from Central Lab Animal (Korea). Water was freely accessible, and a commercially available pellet feed (Dooyeul Biotech, Korea) was given for one week. At 5 weeks of age, the mice were divided into three groups (composed of eight mice for each group): Eight 5-week-old male c57/BL6 mice (normal mice; initial body weight, average 25.3±4.3 g) treated with a normal diet were used for a control group. […]
In addition, the behavior improvement was evaluated through the rotarod travel time changes of the (Huntington's disease model) group, (Huntington's disease model+3′-SL) group, and (Huntington's disease model+6′-SL) group, compared with the normal mouse with a normal diet. […] The rotarod travel time was measured by using a rotarod device (rod accelerating at a revolution speed of 4-40 rpm through 3 minutes, Jungdo Instruments, Korea). After 4-week-old mice were practiced on the rotarod test, the rotarod test was performed from 5 weeks of age, and the mean time to fall was measured. […]

[2] = test system: telomerase; assay: Telomerase activity (TRAP) in vitro, MASMs of aging stimulation models; assay type: cell-based, mouse; conditions: MASMs of aging stimulation model control group, cultured 1 day with SL
Description: In FIGS. 18a and 18b, the telomerase activity was measured using TRAP protocol (Wright et al., 1995). In summary, cell pellets were lysed in CHAPS lysis solvent (containing ribnuclease inhibitor), followed by incubation at 4° C. for 30 minutes. Cell extracts ([…]) were TRAPeze reaction mix (telomerase substrate (TS) primer, fluorescent-labeled RP (reverse) primer, control standard template, and sulforhodamine-labeled standard K2 primer). The TS primer was elongated at 30° C. for 30 minutes, and then PCR was performed. The fluorescence of the thus obtained TRAP product was measured using a fluorescent plate reader to quantify telomerase activity. Relative telomerase activity was normalized by the ratio of native […] to sulforhodamine (internal control standard), expressed as a percentage. Fluorescein (M0250) was purchased from Marker Gene Technologies, Inc. H2-dichlorofluorescin diacetate (DCFDA) was purchased from Molecular Probes. MitoSOX™ Red, MitoTracker Green FM, and MitoTracker® Orange CMTMRos (MTO) were purchased from Invitrogen. 10,000× SYBR® Gold dye was purchased from Molecular Probes, Inc. Nuclear/Cytosol fractionation kit (K266-100) was purchased from BioVision. TRAPeze® XL telomerase detection kit (S7707) was purchased from MILLIPORE. Telomere PNA FISH Kit/Cy3 (K5326) was purchased from Dako. […]

Row | SMILES | rotarod travel time vs SL non-administration group [1] | telomerase activity in MASMs (in vitro) [2]
1 | CC(=O)N[C@H]1[C@H]([C@H](O)[C@H](O)CO)O[C@@](OC[C@H]2O[C@@H](O[C@H]3[C@H](O)[C@@H](O)[C@H](O)O[C@@H]3CO)[C@H](O)[C@@H](O)[C@H]2O)(C(=O)O)C[C@@H]1O [6′-SL, α-NeuNAc-(2→6)-β-D-Gal-(1→4)-D-Glc] | increased | increased telomerase activity
2 | CC(=O)N[C@H]1[C@H]([C@H](O)[C@H](O)CO)O[C@@](O[C@H]2[C@@H](O)[C@@H](CO)O[C@@H](O[C@H]3[C@H](O)[C@@H](O)C(O)O[C@@H]3CO)[C@@H]2O)(C(=O)O)C[C@@H]1O (stereo partly drawn) [3′-SL, α-NeuNAc-(2→3)-β-D-Gal-(1→4)-D-Glc] | less than that of 6′-SL | increased telomerase activity
